The values that follow are results of earlier work, collected in article PMC10465233, “Lys-urea-Aad, Lys-urea-Cmc and Lys-urea-Cms as potential pharmacophores for the design of PSMA-targeted radioligands to reduce off-target uptake in kidneys and salivary glands” (Theranostics, 2023).

Details of the data set: method as in earlier work. The note with it: cited from earlier work.

Structures are written as SMILES. Where two headings read alike, the source gives them in different places.

Take `O=C([O-])CN1CCN(CC(=O)[O-])CCN(CC(=O)NCC2CCC(C(=O)NC(Cc3c4ccccc4cc4ccccc34)C(=O)NCCCCC(NC(=O)NC(CCCC(=O)O)C(=O)O)C(=O)O)CC2)CCN(CC(=O)[O-])CC1.[177Lu+3]` (centres unmarked) [[^177Lu]Lu-HTK03149]: the Kinetics value by setting is: (source organ Brain) 2.23E-03 MBq-h/MBq; (source organ Cortical bone) 7.60E-02 MBq-h/MBq; (source organ Heart) 1.94E-02 MBq-h/MBq; (source organ Kidneys) 2.41E-01 MBq-h/MBq; (source organ Large intestine contents) 9.24E-02 MBq-h/MBq; (source organ Liver) 3.91E-01 MBq-h/MBq. The Kinetics value by setting is: (source organ Lungs) 1.72E-02 MBq-h/MBq; (source organ Pancreas) 1.79E-02 MBq-h/MBq; (source organ Remainder of the body) 5.31E-01 MBq-h/MBq; (source organ Spleen) 2.30E-02 MBq-h/MBq; (source organ Stomach) 8.07E-03 MBq-h/MBq; (source organ Testes) 1.29E-02 MBq-h/MBq. Besides, the Kinetics value runs as follows: (source organ Thyroid) 2.03E-03 MBq-h/MBq; (source organ Urinary bladder) 8.14E-01 MBq-h/MBq.
